From DBAASP
In brackets after ≈: the same amount, converted by molar mass. One block for each compound: values may come before it.

Tests used:
Assay in all cases: ≥ marks a high value that may be exact or a test limit, other limits are often not marked, values filed in µg/mL are converted to µM
[1] = tested on: Bacillus subtilis CMCC 63501
[2] = tested on: Listeria monocytogenes ATCC 19115
[3] = tested on: Staphylococcus aureus CMCC 26003
[4] = tested on: Escherichia coli D31
[5] = tested on: Pseudomonas aeruginosa ATCC 10145
[6] = tested on: Salmonella enterica subsp. enterica serovar Typhimurium ATCC 700931
[7] = tested on: Staphylococcus aureus ATCC 27660
[8] = tested on: Staphylococcus epidermidis ATCC 14990
[9] = tested on: Bacillus subtilis ATCC 23857
[10] = tested on: Candida albicans ATCC 90028
[11] = tested on: Cryptococcus neoformans ATCC 28957
[12] = tested on: Escherichia coli ATCC 25922
[13] = tested on: Fusarium oxysporum f.sp. vasinfectum
[14] = tested on: Fusarium oxysporum
[15] = tested on: Fusarium solani
[16] = tested on: Pectobacterium carotovorum
[17] = tested on: Pseudomonas syringae pv. tabaci
[18] = tested on: Ramulariopsis gossypii
[19] = tested on: Staphylococcus aureus ATCC 25923
[20] = tested on: Trichoderma asperellum
[21] = tested on: Aspergillus niger CECT 2694
[22] = tested on: Erwinia amylovora PMV 6076
[23] = tested on: Fusarium oxysporum f. sp. lycopersici ATCC 201829
[24] = tested on: Penicillium expansum EPS 26
[25] = tested on: Pseudomonas syringae EPS 94
[26] = tested on: Rhizopus stolonifer CECT 2344
[27] = tested on: Xanthomonas vesicatoria 2133-2
[28] = tested on: Escherichia coli NBRC 3972
[29] = tested on: Pseudomonas aeruginosa NBRC 13275
[30] = tested on: Staphylococcus aureus NBRC 13276
[31] = tested on: Bacillus magaterium AB90008
[32] = tested on: Enterobacter cloacae AB2010162
[33] = tested on: Escherichia coli DH5alpha
[34] = tested on: Micrococcus luteus AB2010179
[35] = tested on: Pseudomonas fluorescens
[36] = tested on: Pseudomonas putida
[37] = tested on: Salmonella enterica AB2010185
[38] = tested on: Staphylococcus aureus AB94004

SMILES: CC[C@H](C)[C@H](NC(=O)[C@H](CCCN=C(N)N)NC(=O)[C@H](CCCN=C(N)N)NC(=O)[C@H](Cc1c[nH]c2ccccc12)NC(=O)[C@@H](N)Cc1ccccc1)C(=O)N[C@@H](CCCN=C(N)N)C(=O)N[C@H](C(=O)N[C@H](C(=O)N1CCC[C@H]1C(=O)N[C@@H](Cc1c[nH]c2ccccc12)C(=O)N[C@H](C(=O)N[C@@H](CC(N)=O)C(=O)N1CCC[C@H]1C(=O)N1CCC[C@H]1C(=O)N[C@@H](Cc1ccccc1)C(=O)N[C@@H](CC(C)C)C(=O)N[C@@H](CCC(N)=O)C(=O)N[C@@H](CCC(N)=O)C(=O)N[C@H](C(N)=O)[C@@H](C)O)C(C)C)[C@@H](C)O)C(C)C [FWRRIRVTPWVNPPFLQQT]
MIC [1]: ≥ 105 µM
MIC [2]: 26.2 µM (≈ 64 µg/mL)
MIC [3]: 26.2 µM (≈ 64 µg/mL)

SMILES: CC(C)[C@H](NC(=O)[C@H](C)N)C(=O)N[C@@H](Cc1c[nH]c2ccccc12)C(=O)N[C@@H](CCCCN)C(=O)N[C@@H](CCCCN)C(=O)N[C@H](C(=O)N[C@H](C(=O)N[C@@H](CCCCN)C(=O)N[C@@H](CCCCN)C(=O)N[C@H](C(=O)N[C@H](C(=O)N[C@@H](CCCCN)C(=O)N[C@@H](CO)C(=O)N[C@@H](C)C(=O)N[C@@H](CCCCN)C(=O)N[C@@H](CCCCN)C(=O)N[C@H](C(=O)NCC(=O)O)C(C)C)C(C)C)C(C)C)C(C)C)C(C)C [AVWKKVVKKVVKSAKKVG]
MIC [4]: 3.75 µM (≈ 7.43 µg/mL)
MIC [5]: 7.5 µM (≈ 14.9 µg/mL)
MIC [6]: 7.5 µM (≈ 14.9 µg/mL)
MIC [7]: 7.5 µM (≈ 14.9 µg/mL)
MIC [8]: 7.5 µM (≈ 14.9 µg/mL)

SMILES: CC[C@H](C)[C@H](NC(=O)[C@H](CCCN=C(N)N)NC(=O)[C@H](CCCN=C(N)N)NC(=O)[C@H](CC(C)C)NC(=O)[C@@H](N)Cc1ccccc1)C(=O)N[C@@H](CCCN=C(N)N)C(=O)N[C@H](C(=O)N[C@H](C(=O)N1CCC[C@H]1C(=O)N[C@@H](Cc1c[nH]c2ccccc12)C(=O)N[C@H](C(=O)N[C@@H](CC(N)=O)C(=O)N1CCC[C@H]1C(=O)N1CCC[C@H]1C(=O)N[C@@H](Cc1ccccc1)C(=O)N[C@@H](CC(C)C)C(=O)N[C@@H](CCC(N)=O)C(=O)N[C@@H](CCC(N)=O)C(=O)N[C@H](C(N)=O)[C@@H](C)O)C(C)C)[C@@H](C)O)C(C)C [FLRRIRVTPWVNPPFLQQT]
MIC [2]: ≥ 54 µM
MIC [3]: ≥ 108 µM

SMILES: CC[C@H](C)[C@H](NC(=O)[C@H](CCCCN)NC(=O)[C@@H](NC(=O)[C@@H](NC(=O)[C@H](CC(N)=O)NC(=O)[C@H](Cc1ccc(O)cc1)NC(=O)[C@H](Cc1ccccc1)NC(=O)[C@@H](N)Cc1ccccc1)C(C)C)[C@@H](C)CC)C(=O)N[C@@H](Cc1ccc(O)cc1)C(=O)NCC(=O)N[C@@H](CC(N)=O)C(=O)N[C@@H](CCSC)C(=O)N[C@@H](C)C(=O)NCC(=O)N[C@@H](CCCN=C(N)N)C(=O)N[C@H](C(=O)N[C@@H](CO)C(=O)N[C@@H](CCCCN)C(N)=O)[C@@H](C)CC [FFYNVIKIYGNMAGRISK]
MIC [9]: ≥ 64 µM
MIC [10]: ≥ 128 µM
MIC [11]: ≥ 32 µM
MIC [12]: 128 µM (≈ 271 µg/mL)
MIC [13]: ≥ 128 µM
MIC [14]: ≥ 128 µM
MIC [15]: ≥ 128 µM
MIC [16]: 16 µM (≈ 33.9 µg/mL)
MIC [17]: ≥ 128 µM
MIC [18]: ≥ 64 µM
MIC [19]: 128 µM (≈ 271 µg/mL)
MIC [20]: ≥ 256 µM

SMILES: CC(C)C[C@H](NC(=O)[C@H](C)N)C(=O)N[C@@H](Cc1c[nH]c2ccccc12)C(=O)N[C@@H](CCCCN)C(=O)N[C@@H](CCCCN)C(=O)N[C@@H](CC(C)C)C(=O)N[C@@H](CC(C)C)C(=O)N[C@@H](CCCCN)C(=O)N[C@@H](CCCCN)C(=O)N[C@@H](CC(C)C)C(=O)N[C@@H](CC(C)C)C(=O)N[C@@H](CCCCN)C(=O)N[C@@H](CO)C(=O)N[C@@H](C)C(=O)N[C@@H](CCCCN)C(=O)N[C@@H](CCCCN)C(=O)N[C@@H](CC(C)C)C(=O)NCC(=O)O [ALWKKLLKKLLKSAKKLG]
MIC [4]: 0.94 µM (≈ 1.94 µg/mL)
MIC [5]: 1.88 µM (≈ 3.89 µg/mL)
MIC [6]: 1.88 µM (≈ 3.89 µg/mL)
MIC [7]: 1.88 µM (≈ 3.89 µg/mL)
MIC [8]: 0.94 µM (≈ 1.94 µg/mL)

SMILES: CC[C@H](C)[C@H](N)C(=O)N[C@@H](CC(C)C)C(=O)NCC(=O)N[C@@H](CCCCN)C(=O)N[C@H](C(=O)N[C@@H](Cc1c[nH]c2ccccc12)C(=O)N[C@@H](CCCCN)C(=O)NCC(=O)N[C@H](C(=O)N[C@@H](CCCCN)C(=O)N[C@@H](CC(N)=O)C(=O)N[C@H](C(=O)N[C@@H](CC(C)C)C(N)=O)[C@@H](C)CC)[C@@H](C)CC)[C@@H](C)CC [ILGKIWKGIKNIL]
MIC [31]: ≥ 50 µM
MIC [32]: ≥ 82 µM
MIC [33]: ≥ 82 µM
MIC [34]: 2 µM (≈ 2.99 µg/mL)
MIC [35]: ≥ 32 µM
MIC [36]: 16 µM (≈ 23.9 µg/mL)
MIC [37]: ≥ 35 µM
MIC [38]: 12 µM (≈ 17.9 µg/mL)

Other lines, results leading:

MIC [21]: 22.4 µM (≈ 32.7 µg/mL)
MIC [22]: 5.92 µM (≈ 8.65 µg/mL)
MIC [23]: 1.73 µM (≈ 2.53 µg/mL)
MIC [24]: 22.4 µM (≈ 32.7 µg/mL)
MIC [25]: 5.92 µM (≈ 8.65 µg/mL)
MIC [26]: ≥ 35.4 µM
MIC [27]: 2 µM (≈ 2.93 µg/mL)
SMILES: CC[C@H](C)[C@H](NC(=O)[C@H](CCCCN)NC(=O)[C@H](CCCCN)NC(=O)[C@H](Cc1ccccc1)NC(=O)[C@H](CC(C)C)NC(=O)[C@H](CCCCN)NC(=O)[C@@H](N)Cc1c[nH]c2ccccc12)C(=O)N[C@@H](CC(C)C)C(=O)N[C@@H](CCCCN)C(=O)N[C@@H](Cc1ccccc1)C(=O)N[C@@H](CC(C)C)C(N)=O [WKLFKKILKFL]

MIC [28]: ≥ 800 µM
MIC [29]: ≥ 800 µM
MIC [30]: ≥ 800 µM
SMILES: CC(=O)N[C@@H](CCCCN)C(=O)N[C@@H](CCCCN)C(=O)NCC(=O)N[C@@H](CCCCN)C(=O)N[C@@H](CCCCN)C(=O)NCC(=O)N[C@@H](CCCCN)C(=O)N[C@@H](CCCCN)C(=O)NCC(N)=O [KKGKKGKKG]
